Measured values: ChEMBL document CHEMBL4828704, “Efophylins A and B, Two C2-Asymmetric Macrodiolide Immunosuppressants from Streptomyces malaysiensis” (J Nat Prod, 2021)
The source made the active and inactive calls. No cut-off for these calls is given here.

Experiments:
Splenocyte [1] = test: Cytotoxicity against BALB/c mouse splenocyte assessed as reduction in cell viability measured after 72 hrs by CCK-8 assay; format: cell-based
T-cell [2] = test: Inhibition of ConA-induced IL-2 expression in BALB/c mouse T-lymphocyte measured after 24 hrs by ELISA; format: functional, tissue-based
[3] = target: Calcineurin subunit B type 1 (Homo sapiens, UniProt P63098); test: Inhibition of CNB (unknown origin) using p-NPP as substrate preincubated for 10 mins followed by substrate addition by spectrophotometry analysis
Splenocyte [4] = test: Inhibition of NFAT phosphorylation in BALB/c mouse splenocyte at 5 to 30 uM by immunoblotting analysis; format: tissue-based; conditions: dose 5-30 µM
Splenocyte [5] = test: Inhibition of NFAT activation in BALB/c mouse splenocyte at 5 to 30 uM by immunoblotting analysis; format: tissue-based; conditions: dose 5-30 µM
[6] = Inhibition of ConA-induced proliferation of BALB/c mouse splenocyte measured after 72 hrs by CCK-8 assay; format: functional, tissue-based
T-cell [7] = test: Inhibition of ConA-induced IL-2 expression in BALB/c mouse T-lymphocyte at 40 uM measured after 24 hrs by ELISA; format: functional, tissue-based
Splenocyte [8] = test: Immunosuppressive activity in C57BL/6 mouse splenocyte assessed as inhibition of mixed lymphocyte reaction when cocultured with mitomycin-C pretreated BALB/c mouse splenocyte measured up to 72 hrs by CCK-8 assay; format: functional, cell-based; conditions: C57BL/6, Splenocyte

Chain of Calcineurin subunit B type 1 (P63098 2-170 limits assumed): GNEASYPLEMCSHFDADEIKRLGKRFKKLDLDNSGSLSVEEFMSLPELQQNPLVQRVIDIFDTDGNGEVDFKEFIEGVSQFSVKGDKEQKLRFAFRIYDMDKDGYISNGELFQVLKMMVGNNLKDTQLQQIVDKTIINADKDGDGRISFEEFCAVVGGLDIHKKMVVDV

Q: Which results are given for `CC[C@@H]1[C@@H](C)O[C@@](OC)([C@@H](C)[C@H](O)[C@H](C)[C@H]2OC(=O)/C=C/C=C/[C@H](C)[C@@H]([C@@H](C)[C@@H](O)[C@H](C)C(O)/C=C/[C@H](CC)[C@@H](C)O)OC(=O)/C=C/C=C/[C@@H]2C)C[C@H]1O[C@H]1C[C@H](O)[C@H](O)[C@H](C)O1` (some centres undefined)?
A: IC50 (Splenocyte [1]): 49 µM; inhibition (T-cell [2]): Dose-Dependent Effect; IC50 [3]: 24 µM; inhibition (Splenocyte [4]): Active; inhibition (Splenocyte [5]): Active; IC50 [6]: 24.6 µM; inhibition (T-cell [7]): Active; IC50 (Splenocyte [8]): 27.9 µM

Q: With `CC[C@@H]1[C@@H](C)O[C@@](O)([C@@H](C)[C@H](O)[C@H](C)[C@H]2OC(=O)/C=C/C=C/[C@H](C)[C@@H]([C@@H](C)[C@@H](O)[C@H](C)C(O)/C=C/[C@H](CC)[C@@H](C)O)OC(=O)/C=C/C=C/[C@@H]2C)C[C@H]1O[C@H]1C[C@H](O)[C@H](O)[C@H](C)O1` (some centres undefined) as the compound, how does the inhibition [3] read?
A: The inhibition was “inactive”.
